Experimental data taken from paper PMC7355663, “Microscale Thermophoresis as a Screening Tool to Predict Melanin Binding of Drugs” (Pharmaceutics, 2020).
Read-outs that look alike come from different tables or passages of the source.

Tests used:
[1] = Label-free microscale thermophoresis (MST) melanin binding assay; conditions: for melanin binder category in Figure 1a: comparison of MST with traditional assay
Procedure: Synthetic melanin was purchased from Sigma Aldrich (#M8631-100 mg). Melanin nanoparticles were prepared as described earlier by Fan et al., and low-binding pipette tips (Maxymum RecoveryTM pipet tips, Corning Incorporated, Salt Lake City, UT, USA) and tubes (No stick microtubes, Alpha Laboratories, Hampshire, UK) were used with both melanin and melanin nanoparticles. Briefly, melanin was dissolved into 1 N NaOH with a concentration of 2 mg/mL and stirred by vortexing. The solution was neutralized by adding an equal volume of 1 N HCl. […] After the final centrifugation, the resulting nanoparticles were suspended into a small volume of sterile water and freeze-dried for 48–72 h (ModulyoD-230, Thermo Savant, Holbrook, NY, USA), and stored at −20 °C until the binding assays.
Melanin binding of each of the 13 model compounds was determined (for the concentrations in the assay, see Table 1). The dilution series of drugs were prepared onto a PCR plate (4titude PCR Plate, Skirted, #4ti-0740, Brooks Life Sciences, Chelmsford, MA, USA) in phosphate buffered saline (PBS, pH 7.4). […] The compound dilutions (10 µL) were transferred into 0.2 mL PCR tube strips (#TBS0201, Bio-Rad Laboratories, Inc., Hercules, CA, USA), and an equal volume of 1 mg/mL melanin nanoparticle dilution was added, resulting in a final melanin concentration of 0.5 mg/mL. At least three biological replicates (individually incubated dilution series) were prepared for each compound (n = 3–5). A reference sample containing only melanin nanoparticles and PBS (pH 7.4) was included in each assay to determine the unbound state in the thermophoresis experiment. Melanin nanoparticles were incubated with the compounds at room temperature for at least 2 h.
After >2 h incubation, the melanin–ligand complexes were mixed gently with a pipette to ensure melanin solution homogeneity and then transferred into capillaries (Monolith NT.115 Premium capillaries, #MOK025, NanoTemper Technologies GmbH, München, Germany). The samples were analyzed with a Monolith NT.115 pico device using MO.Control Software (both from NanoTemper Technologies GmbH, München, Germany) using nano-blue excitation, LED light adjusted to 60% excitation power, and infrared laser (MST power) set to high. […] The equation is based on the Langmuir binding isotherm. […] Equation (1) is a follows:(1) f(c)=Unbound+(Bound−Unbound)×c+c(target)+Kd−(c+c(target)+Kd)^2−4c×c(target)/2c(target) where f(c) is the fraction bound at a given ligand concentration c. Unbound is either the normalized fluorescence signal (Fnorm; MST mode) or raw fluorescence counts (initial fluorescence mode) of the target alone. Bound is either the normalized fluorescence signal or raw fluorescence counts (initial fluorescence mode) of the melanin–ligand complex. Kd is the dissociation constant or binding affinity, and c (target) is the final concentration of the target in the assay.
The normalized fluorescence is the ratio of relative fluorescence of the selected region after heating (hot region) and relative initial fluorescence before the heating (cold region, i.e., relative fluorescence values before the infrared laser was switched on). The MST traces displaying the changes in the relative fluorescence over time (heating) with the selected hot and cold regions are presented in the Supplementary Materials. In the case of ligand-induced changes in the initial raw fluorescence counts, the raw fluorescence counts prior to the heating were used (initial fluorescence mode). If the ligand-induced fluorescence changes were not observed, the normalized fluorescence signals (MST mode) were used to determine the Kd (for additional information, see the Supplementary Materials). […] Affinity Analysis Software.
Kd determination strategies. The Kd values were tested in both initial fluorescence and the above
described MST modes within the MO Affinity Analysis Software (Fig. S1, Table S1) and the Kd values

[2] = Traditional melanin binding assay (equilibrium binding, Sips isotherm); conditions: for Target Capacity ± SE, traditional method (Sips isotherm): Bmax multiplied with 0.5 mg/mL melanin concentration of the MST assay; for n ± SE, traditional method (Sips isotherm): heterogeneity index; for n ± SE, traditional method (Sips isotherm) / Bmax ± SE, traditional method (Sips isotherm) / Kd: 1 mg/mL melanin, PBS pH 7.4, 37 °C; for Bmax ± SE, traditional method (Sips isotherm): maximum binding capacity; for Kd: read-out: Kd ± SE, traditional method (Sips isotherm)
Procedure: (§1) The traditional melanin binding assay was conducted with melanin from the porcine RPE-choroid. We used previously published methods for melanin isolation and drug binding. Fresh melanin suspension and test compound solutions were prepared before each experiment. The melanin suspension (in PBS, pH 7.4) was sonicated in a bath sonicator for 30 min (Elmasonic S 40 H, Elma Schmidbauer GmbH, Singen, Germany) before the experiment. The incubation with test compounds took place at 37 °C on a shaker (220 rpm), and the melanin concentration in the assay was 1 mg/mL (0.15 mg/well). In the control samples, PBS buffer (pH 7.4) was used instead of the melanin suspension. Three individual replicates were made for each experiment. After 20 h incubation, the samples were centrifuged at 20,000× g for 20 min, and supernatant containing the unbound ligand was collected for analysis.
(§2) Samples having an estimated concentration of 0.5 µM or higher were analyzed with ultra-high pressure liquid chromatography (UPLC) (Acquity UPLC, Waters, Milford, MA, USA) with UV detection (Photodiode Array Detector, Waters, MA, USA). The separation was carried out on a Luna Omega Polar C18 (1.6 μm, 2.1 × 50 mm^2) column (Phenomenex) at 30 °C. Injection volume was 4 µL. Gradient mode was used for all the compounds with an acetonitrile/15 mM phosphate buffer (pH 2) mobile phase. Gradient duration was 3−5 min depending on the sample (levofloxacin, terazosin, and papaverine).
(§3) All internal standards, namely levofloxacin D8, terazosin D8, and papaverine D3, were purchased from Toronto Research Chemicals (Toronto, ON, Canada). […] Injection volumes were 0.2 μL for terazosin, 0.3 µL for levofloxacin, and 0.15 µl for papaverine with a flow through needle injection system. The mobile phase consisted of 0.1% formic acid (Merck, Darmstadt, Germany) in ultrapure water (A) and 100% LC–MS grade acetonitrile (Honeywell, Seelze, Germany) (B). […] The gradient for levofloxacin was the same as for papaverine, but the total run time was 6 min. The flow rate was 0.3 mL/min for all the compounds.
(§4) Mass spectrometric measurements were carried out using a Waters Xevo TQ-S triple quadruple mass spectrometer coupled with an electrospray ionization (ESI) on a positive mode for all three compounds. Optimized MS-parameters were as follows: capillary 1.5 kV (terazosin and papaverine), 3.5 kV (levofloxacin), cone voltage 80 V (terazosin) and 8 V (terazosin D8), 22 V (papaverine and papaverine D3), 28 V (levofloxacin and levofloxacin D8), source temperature 150 °C, and desolvation temperature 500 °C (terazosin) or 450 °C (papaverine and levofloxacin). Nitrogen (AGA, Helsinki, Finland) was used as the desolvation gas (1000 L·h^−1 terazosin, 800 L·h^−1 papaverine and levofloxacin) and the cone gas (150 L·h^−1), argon (AGA, Helsinki, Finland) as the collision gas. Multiple reaction monitoring (MRM) mode was employed for quantification. […] The resulting data were analyzed with Waters MassLynx V4.1 software. To consider the effect of melanin on the analyses, separate samples containing only melanin in PBS (with no test compound) were also studied.
(§5) The binding parameters were determined with Sips isotherm (Equation (2)) as described by Manzanares et al.. B = (Bmax × [L]^n)/(Kd^n + [L]^n)(2) where B is the amount of bound drug (nmol·mg^−^1); Bmax is the maximum binding capacity (nmol·mg^−^1); [L] is the free drug concentration (µM); n is the heterogeneity index (assuming heterogeneity of the surface of the melanin particles); and Kd represents the dissociation constant (µM).

[3] = Prediction of unbound ligand fraction in vivo (human RPE-choroid); conditions: class by predicted fraction unbound in vivo, human RPE-choroid
Procedure: (§6) Unbound ligand fractions in vivo were calculated considering melanin binding as the only driver of nonspecific tissue binding.
(§7) Linear regression was used to describe the relationship between the Kd values obtained with the MST and the predicted unbound ligand fractions in human RPE-choroid obtained with calculations described above.
(§8) The Kd values obtained with MST consider only one class of binding site, whereas the Sips isotherm (the traditional binding assay) depicts different binding energies and binding sites. […] This approach is relevant to evaluate the melanin binding.

melanin [4] = experiment: as above; conditions: human
Procedure: as §6, §7, §8

[5] = design: method as in PMID 26741026, PMID 29859954; conditions: from previous studies, ref [11],[16], cited from earlier work; for Kd: read-out: Kd ± SE, traditional method (Sips isotherm); for n ± SE, traditional method (Sips isotherm): heterogeneity index; for Bmax ± SE, traditional method (Sips isotherm): maximum binding capacity
melanin [6] = experiment: in vitro; conditions: for fraction unbound at 20 h, 1 µM: pig, pH 7.4
Procedure: as §1, §2, §3, §4, §5

[7] = monkeys and humans; ref [10]; cited from earlier work
[8] = average of the two high binders; 34 compounds in cassette; melanin 3.6 mg/mL; data of Pelkonen et al. [6]
Procedure: as §6

[9] = 0.5 mg/mL (12.5 µM) melanin nanoparticles, PBS pH 7.4, room temperature, 68% confidence, initial fluorescence mode for compounds marked *, otherwise MST mode, read-out: Kd ± Kd Confidence (MST)
[10] = Table S2, normalized fluorescence, 60% excitation power, read-out: Kd, MST mode (Fnorm)
[11] = Table S2, raw fluorescence counts before heating, 60% excitation power, read-out: Kd, initial fluorescence mode (converted)
[12] = human RPE-choroid (predicted), 34.8 mg/mL melanin

SMILES | Kd [1, 9] [µM] | Kd [1, 10] [µM] | Target Capacity ± SE, traditional method (Sips isotherm) [2] [µM] | fraction unbound at 1 µM (melanin [4]; [12]) | fraction unbound at 20 h, 1 µM (melanin [6]) | Kd [1, 11] [µM] | Melanin binding class based on traditional assay [3] | n ± SE, traditional method (Sips isotherm) [5] | Bmax ± SE, traditional method (Sips isotherm) [5] [nmol/mg] | also measured
CC(C)(C)NCC(O)COc1cccc2c1CC(O)C(O)C2 (centres unmarked) [Nadolol] | 200 ± 33 | 260 | 34 ± 12 | 0.08 |  | 200 | intermediate | 0.94 ± 0.05 | 68 ± 24 | Fraction Unbound in Vitro (%) (1 mg/mL Melanin) ([2]; pig, 20 h, 1 µM, pH 7.4): 78%; Kd [5]: 340 ± 200 µM
COc1cc2nc(N3CCN(C(=O)C4CCCO4)CC3)nc(N)c2cc1OC (centres unmarked) [Terazosin] | 29 ± 28 | 96 | 56 ± 6.5 | 0.00012 | 0.029 | 29 | extreme |  |  | n ± SE, traditional method (Sips isotherm) ([2]; 20 h): 0.64 ± 0.018; Bmax ± SE, traditional method (Sips isotherm) ([2]; 20 h): 112 ± 13 nmol/mg; Kd ([2]; 20 h): 46 ± 16 µM
CC(C)NCC(O)COc1ccc(CCOCC2CC2)cc1 (centres unmarked) [betaxolol] |  |  |  |  |  |  |  |  |  | concentration in pigmented eye tissues compared to neighboring non-pigmented tissues [7]: 20–150 fold
CC1(C)S[C@@H]2[C@H](NC(=O)Cc3ccccc3)C(=O)N2[C@H]1C(=O)O [Penicillin G] |  |  |  |  |  |  |  |  |  | fraction unbound (melanin [6]): 0.092; fraction unbound (melanin [4]; [12]): 0.0029
Clc1ccc2nsnc2c1NC1=NCCN1 [tizanidine] |  |  |  |  |  |  |  |  |  | unbound fraction in cassette assay compared to single compound incubation [8]: 2.1 fold
C=C[C@H]1C[N@@]2CC[C@H]1C[C@@H]2[C@@H](O)c1ccnc2ccc(OC)cc12 [Quinidine] |  |  |  |  |  |  |  |  |  | fraction unbound (melanin [6]): 0.16
COc1ccc(Cc2nccc3cc(OC)c(OC)cc23)cc1OC [Papaverine] | 28 ± 23 | 93 | 33 ± 4 |  | 0.15 | 28 | high |  |  | n ± SE, traditional method (Sips isotherm) ([2]; 20 h): 0.715 ± 0.015; Bmax ± SE, traditional method (Sips isotherm) ([2]; 20 h): 66 ± 8 nmol/mg; Kd ([2]; 20 h): 66 ± 18 µM; fraction unbound at 1 µM (melanin [4]): 0.0013
O=C(O)Cc1ccccc1Nc1c(Cl)cccc1Cl [Diclofenac] |  |  |  |  |  |  |  |  |  | Kd ± Kd Confidence (MST) ([1]; 0.5 mg/mL (12.5 µM) melanin nanoparticles, PBS pH 7.4, room temperature, 68% confidence, initial fluorescence mode for compounds marked *, otherwise MST mode): Kd could not be determined; Melanin binding class based on Kd from MST ([1]; class by Kd (MST)): low; melanin binder category in Figure 1a [1]: Weak melanin binders; Kd ± SE, traditional method (Sips isotherm) [5]: no binding ^1

Now from value to compound, other results behind:

Kd [1, 9] [µM] | Kd [1, 10] [µM] | Target Capacity ± SE, traditional method (Sips isotherm) [2] [µM] | fraction unbound at 1 µM (melanin [4]; [12]) | fraction unbound at 20 h, 1 µM (melanin [6]) | SMILES | Kd [1, 11] [µM] | Melanin binding class based on traditional assay [3] | n ± SE, traditional method (Sips isotherm) [5] | Bmax ± SE, traditional method (Sips isotherm) [5] [nmol/mg] | also measured
3500 | > 10000 |  |  |  | CN(Cc1cnc2nc(N)nc(N)c2n1)c1ccc(C(=O)N[C@@H](CCC(=O)O)C(=O)O)cc1 [Methotrexate] | 3500 | low |  |  | melanin binder category in Figure 1a [1]: Weak melanin binders; fraction unbound (melanin [6]): 0.98; fraction unbound (melanin [4]; [12]): 0.54; Kd ± SE, traditional method (Sips isotherm) [5]: no binding ^1
0.8 | 0.8 | 190 ± 20 | 1.2e-05 | 0.0041 | CCN(CC)CCCC(C)Nc1ccnc2cc(Cl)ccc12 (centres unmarked) [Chloroquine] |  | extreme | 0.605 ± 0.012 | 380 ± 40 | Kd [5]: 76 ± 23 µM
 |  | 88 ± 30 | 0.009 | 0.32 | CC(C)NCC(O)COc1cccc2ccccc12 (centres unmarked) [Propranolol] |  | high | 0.89 ± 0.05 | 176 ± 60 | 
260 ± 128 | 260 | 19.5 ± 3 | 0.057 | 0.71 | CC(C)(C)NC[C@H](O)COc1nsnc1N1CCOCC1 [Timolol] |  | intermediate | 0.95 ± 0.03 | 39 ± 6 | Kd [5]: 120 ± 30 µM
